Assay results published in patent publication US10570129B2 (Zoetis Services LLC, priority 2015, dated 2020).

Tests used:
Haemonchus contortus L3 = assay: microbe, parasite or virus in culture; type: cell-based; conditions: Haemonchus contortus, 96 h, read-out: HcL3 Minimal Effective Concentration (MEC)
D. immitis microfilariae = assay: Dirofilaria immitis, microfilariae (DiMF) in vitro motility assay; type: cell-based; conditions: Dirofilaria immitis, 72 h, read-out: DiMF minimally effective dose (MEC)

O=C(NCc1ccnc(Cl)c1)n1c2c(c3cc(OC(F)(F)F)ccc31)CN(C/C=C/c1ccc(F)cc1F)CC2 [Example 387, (E)-N-((2-chloropyridin-4-yl)methyl)-2-(3-(2,4-difluorophenyl)allyl)-8-(trifluoromethoxy)-1,2,3,4-tetrahydro-5H-pyrido[4,3-b]indole-5-carboxamide]
minimal effective concentration (Haemonchus contortus L3): 0.2 µM | minimal effective concentration (D. immitis microfilariae): 3.3 µM

O=C(NCc1ccnc(Cl)c1)n1c2c(c3cc(OC(F)(F)F)ccc31)CN(C/C=C/c1ccc(F)c(Cl)c1)CC2 [Example 388, (E)-2-(3-(3-chloro-4-fluorophenyl)allyl)-N-((2-chloropyridin-4-yl)methyl)-8-(trifluoromethoxy)-1,2,3,4-tetrahydro-5H-pyrido[4,3-b]indole-5-carboxamide]
minimal effective concentration (Haemonchus contortus L3): 1.8 µM | minimal effective concentration (D. immitis microfilariae): > 100 µM

O=C(NCc1ccnc(Cl)c1)n1c2c(c3cc(OC(F)(F)F)ccc31)CN(C/C=C/c1ccc(F)c(F)c1)CC2 [Example 389, (E)-N-((2-chloropyridin-4-yl)methyl)-2-(3-(3,4-difluorophenyl)allyl)-8-(trifluoromethoxy)-1,2,3,4-tetrahydro-5H-pyrido[4,3-b]indole-5-carboxamide]
minimal effective concentration (Haemonchus contortus L3): 0.5 µM | minimal effective concentration (D. immitis microfilariae): 10 µM

O=C(NCc1ccnc(Cl)c1)n1c2c(c3cc(OC(F)(F)F)ccc31)CN(C/C=C/c1ccc(Cl)c(Cl)c1)CC2 [Example 392, (E)-N-((2-chloropyridin-4-yl)methyl)-2-(3-(3,4-dichlorophenyl)allyl)-8-(trifluoromethoxy)-1,2,3,4-tetrahydro-5H-pyrido[4,3-b]indole-5-carboxamide]
minimal effective concentration (Haemonchus contortus L3): 1 µM | minimal effective concentration (D. immitis microfilariae): 22.2 µM

O=C(NCc1ccnc(Cl)c1)n1c2c(c3cc(OC(F)(F)F)ccc31)CN(C/C=C/c1ccc(F)cc1)CC2 [Example 393, (E)-N-((2-chloropyridin-4-yl)methyl)-2-(3-(4-fluorophenyl)allyl)-8-(trifluoromethoxy)-1,2,3,4-tetrahydro-5H-pyrido[4,3-b]indole-5-carboxamide]
minimal effective concentration (Haemonchus contortus L3): 0.4 µM | minimal effective concentration (D. immitis microfilariae): 1.5 µM

COc1ccc(/C=C/CN2CCc3c(c4cc(OC(F)(F)F)ccc4n3C(=O)NCc3ccnc(Cl)c3)C2)cc1 [Example 394, (E)-N-((2-chloropyridin-4-yl)methyl)-2-(3-(4-methoxyphenyl)allyl)-8-(trifluoromethoxy)-1,2,3,4-tetrahydro-5H-pyrido[4,3-b]indole-5-carboxamide]
minimal effective concentration (Haemonchus contortus L3): 1 µM | minimal effective concentration (D. immitis microfilariae): 6.9 µM

O=C(NCc1ccnc(Cl)c1)n1c2c(c3cc(OC(F)(F)F)ccc31)CN(C/C=C/c1ccc(OC(F)(F)F)cc1)CC2 [Example 395, (E)-N-((2-chloropyridin-4-yl)methyl)-8-(trifluoromethoxy)-2-(3-(4-(trifluoro-methoxy)phenyl)allyl)-1,2,3,4-tetrahydro-5H-pyrido[4,3-b]indole-5-carboxamide]
minimal effective concentration (Haemonchus contortus L3): 3.3 µM | minimal effective concentration (D. immitis microfilariae): 22.2 µM

O=C(NCc1ccnc(Cl)c1)n1c2c(c3cc(OC(F)(F)F)ccc31)CN(C/C=C/c1ccc(C(F)(F)F)cc1)CC2 [Example 396, (E)-N-((2-chloropyridin-4-yl)methyl)-8-(trifluoromethoxy)-2-(3-(4-(trifluoro-methyl)phenyl)allyl)-1,2,3,4-tetrahydro-5H-pyrido[4,3-b]indole-5-carboxamide]
minimal effective concentration (Haemonchus contortus L3): 3.3 µM | minimal effective concentration (D. immitis microfilariae): 1 µM

O=C(NCc1ccnc(F)c1)n1c2c(c3cc(OC(F)(F)F)ccc31)CN(C/C=C/c1ccc(Cl)c(F)c1)CC2 [Example 401, (E)-2-(3-(4-chloro-3-fluorophenyl)allyl)-N-((2-fluoropyridin-4-yl)methyl)-8-(trifluoromethoxy)-1,2,3,4-tetrahydro-5H-pyrido[4,3-b]indole-5-carboxamide]
minimal effective concentration (Haemonchus contortus L3): 0.5 µM | minimal effective concentration (D. immitis microfilariae): 18.2 µM
